Experimental data reported in the supplement of paper PMC9337992.
± gives the standard deviation of the averaged measurements.

Columns and labels:
Experiment in all cases: cell confluence relative to DMSO control; higher = less growth inhibition
Details in all cases: 5 d
[1] = system: BT20
Description: (§1)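 MS023 dose-response (9 concentrations, 40 nM to 10 uM) across TNBC cell lines. Cell confluence was monitored by IncuCyte live-cell imaging for 5 d and normalised to DMSO; n = 4 replicates.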

[2] = system: BT549
Description: as §1

[3] = system: CAL120
Description: as §1

[4] = system: CAL85-1
Description: as §1

[5] = system: HCC1143
Description: as §1

[6] = system: HCC1395
Description: as §1

[7] = system: HCC1806
Description: as §1

[8] = system: HCC3153
Description: as §1

[9] = system: HCC38
Description: as §1

[10] = system: HCC70
Description: as §1

[11] = system: Hs578T
Description: as §1

[12] = system: MDA-MB-157
Description: as §1

[13] = system: MDA-MB436
Description: as §1

[14] = system: MDA-MB468
Description: as §1

[15] = system: MDAMB231
Description: as §1

[16] = system: MX1
Description: as §1

[17] = system: SUM149
Description: as §1

[18] = system: SUM159
Description: as §1

CC(C)Oc1ccc(-c2c[nH]cc2CN(C)CCN)cc1 [MS023]
cell confluence [%]
Details	log10 MS023 concentration (log10 uM): 0.09691	log10 MS023 concentration (log10 uM): 0.39794	log10 MS023 concentration (log10 uM): 0.69897	log10 MS023 concentration (log10 uM): 1	log10 MS023 concentration (log10 uM): -0.20412	log10 MS023 concentration (log10 uM): -0.50515	log10 MS023 concentration (log10 uM): -0.80618	log10 MS023 concentration (log10 uM): -1.10721	log10 MS023 concentration (log10 uM): -1.40824
[1]	102 ± 5	98.2 ± 8.7	99.8 ± 4.7	91.7 ± 13	100 ± 5.7	102 ± 6	101 ± 5.1	93.8 ± 11	96.5 ± 5.5
[2]	91.8 ± 8.3	85.7 ± 7.7	61.5 ± 7.5	53.4 ± 7.6	99.5 ± 3	97.3 ± 8	103 ± 3.4	109 ± 8.2	98.8 ± 4.6
[3]	100.06 ± 0.081	100.1 ± 0.14	100 ± 0.21	99.59 ± 0.47	100.2 ± 0.23	99.99 ± 0.22	100.2 ± 0.18	100 ± 0.26	100.1 ± 0.12
[4]	84.2 ± 3.2	70.6 ± 3	59.1 ± 5.1	39.6 ± 1.6	95.4 ± 3	98.7 ± 1.4	99.6 ± 2.4	98.1 ± 1.3	96 ± 3.2
[5]	84.3 ± 6.3	52.5 ± 5.2	26 ± 5.3	21.1 ± 2.3	82.8 ± 10	89.9 ± 9.1	96.6 ± 2.6	100 ± 1.2	98.5 ± 2.5
[6]	101 ± 8	92.8 ± 13	70.3 ± 9.2	53.3 ± 3.7	102 ± 9.3	107 ± 9.3	107 ± 9	108 ± 9.3	108 ± 9.2
[7]	94.2 ± 3	97.4 ± 3.8	84.6 ± 2.5	66.6 ± 9.3	100 ± 1.9	100 ± 2.4	100 ± 3.6	101 ± 2.7	103 ± 1.8
[8]	95 ± 1.1	85.4 ± 2.5	67.3 ± 2.6	51.9 ± 3.1	98.1 ± 1.2	98.44 ± 0.83	99.3 ± 2.1	99.5 ± 1.1	98.93 ± 0.56
[9]	95.7 ± 1	86.4 ± 5	76.9 ± 6.4	60.3 ± 8.9	98.1 ± 1.6	99.1 ± 1.1	100 ± 0.42	100.3 ± 0.22	100.1 ± 0.28
[10]	73.3 ± 10	67.8 ± 7.8	54.4 ± 3.4	39.5 ± 0.84	86 ± 12	80 ± 12	91.3 ± 11	89.3 ± 5.6	96.6 ± 4.4
[11]	99.47 ± 0.24	97.79 ± 0.78	89.9 ± 1.9	79.6 ± 7.6	99.79 ± 0.14	99.921 ± 0.051	99.933 ± 0.042	99.898 ± 0.054	99.921 ± 0.051
[12]	93.1 ± 6.2	93.3 ± 8.1	88.9 ± 7	81.4 ± 8.7	95.6 ± 11	101 ± 8.3	99.7 ± 1.9	100 ± 6	98.2 ± 3.8
[13]	70.9 ± 13	33.6 ± 5.4	24.4 ± 2.2	22.9 ± 3.1	78.1 ± 3.8	82.9 ± 8.3	97.9 ± 8.7	96.2 ± 11	100 ± 2.5
[14]	58.7 ± 3.8	35.8 ± 2.1	36.3 ± 3.1	25.3 ± 3.6	79.5 ± 4.7	95.1 ± 4.7	94.8 ± 5.9	96.2 ± 5.2	98.5 ± 7
[15]	96.77 ± 0.61	88.2 ± 3.7	71 ± 3.9	61.1 ± 3.6	99.56 ± 0.35	99.8 ± 0.07	99.9 ± 0.1	99.943 ± 0.053	99.978 ± 0.014
[16]	93.6 ± 1	83.1 ± 1.4	48.8 ± 3.2	33.3 ± 1.8	95.8 ± 1.8	100 ± 1.4	99.8 ± 1.8	97.8 ± 3.8	98.4 ± 1.6
[17]	94.1 ± 6.1	79.9 ± 12	53.5 ± 17	38.4 ± 8.9	99.14 ± 0.98	98.7 ± 2.5	97.9 ± 4.1	99.1 ± 1.7	95.4 ± 7.5
[18]	93 ± 9	49.6 ± 14	25.1 ± 6.7	26.3 ± 8.2	98.2 ± 1.8	99.11 ± 0.49	99.03 ± 0.93	99.4 ± 1	98.1 ± 3
